Results as given in article PMC10031741, “A D-cysteine desulfhydrase, SlDCD2, participates in tomato fruit ripening by modulating ROS homoeostasis and ethylene biosynthesis” (Horticulture Research, 2023).

Target: T1, SlDCD2 (Solanum lycopersicum, UniProt A0A3Q7EA38)
T1 construct: gene LOC101256906; tag removal not mentioned
T1 sequence (A0A3Q7EA38 1-442): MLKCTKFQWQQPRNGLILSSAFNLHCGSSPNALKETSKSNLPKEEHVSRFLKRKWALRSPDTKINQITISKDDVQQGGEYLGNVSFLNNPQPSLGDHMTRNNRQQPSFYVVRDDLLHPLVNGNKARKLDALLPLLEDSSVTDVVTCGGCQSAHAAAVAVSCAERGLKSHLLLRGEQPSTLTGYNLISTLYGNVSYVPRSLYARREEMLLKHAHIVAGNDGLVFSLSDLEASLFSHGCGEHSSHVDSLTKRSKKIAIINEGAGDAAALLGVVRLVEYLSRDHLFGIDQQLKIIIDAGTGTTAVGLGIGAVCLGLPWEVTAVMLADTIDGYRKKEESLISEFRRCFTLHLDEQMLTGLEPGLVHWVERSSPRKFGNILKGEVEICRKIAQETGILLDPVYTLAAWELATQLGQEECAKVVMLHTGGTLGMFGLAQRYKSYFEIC
Test: H2S production, methylene blue at […] nm
Format: biochemical
Settings: H2S release; assay as in cited reference

N[C@H](CS)C(=O)O [D-cysteine]
H2S production, methylene blue at 670 nm: Using D-cysteine as the substrate, the enzymatic activity of SlDCD2 was evaluated
